Tests used:
Format in all cases: in vivo
Anthonomus grandis = assay: B.1 Boll weevil (Anthonomus grandis), 96-well microtiter plate diet test; conditions: 120 h, egg and larval mortality, 5 days, read-out: mortality in comparison with untreated controls
Description: For evaluating control of boll weevil, the test unit consisted of 96-well-microtiter plates containing an insect diet and 5-10 A. grandis eggs.
The compounds were formulated using a solution containing 75% v/v water and 25% v/v DMSO. Different concentrations of formulated compounds were sprayed onto the insect diet at 5 μl, using a custom-built micro atomizer, at two replications.
After application, microtiter plates were incubated at about 25±1° C. and about 75±5% relative humidity for 5 days. Egg and larval mortality were then visually assessed.

Aedes aegypti = assay: whole plant or invertebrate; conditions: 48 h, larval mortality, 2 days, read-out: mortality in comparison with untreated controls
Description: For evaluating control of Yellow Fever Mosquito, the test unit consisted of 96-well-microtiter plates containing 200 μl of tap water per well and 5-15 freshly hatched A. aegypti larvae. The active compounds were formulated using a solution containing 75% (v/v) water and 25% (v/v) DMSO. Different concentrations of formulated compounds or mixtures were sprayed onto the insect diet at 2.5 μl, using a custom-built micro atomizer, at two replications.
After application, microtiter plates were incubated at 28±1° C., 80±5% RH for 2 days. Larval mortality was then visually assessed.

Plutella xylostella = assay: B.6 Diamond Back Moth, cabbage leaf disc dip test; conditions: foliar, 3rd instar larvae, 72 hours after treatment, read-out: mortality in comparison with untreated controls
Description: The active compound was dissolved at the desired concentration in a mixture of 1:1 (vol:vol) distilled water:acetone. Surfactant (Kinetic) was added at a rate of 0.01% (vol/vol). The test solution was prepared at the day of use. Cabbage leaf discs (60 mm in diameter) were dipped in test solution and air-dried. Treated leaves were placed in petri dishes lined with moistened filter paper and inoculated with ten 3rd instar larvae. Mortality was recorded 72 hours after treatment. Feeding damages were also recorded using a scale of 0-100%.

Dichromothrips corbetti = assay: B.7 Orchid Thrips, floral-immersion test; conditions: adult thrips, 72 hours after treatment, read-out: mortality in comparison with untreated controls
Description: Dichromothrips corbetti adults used for bioassay were obtained from a colony maintained continuously under laboratory conditions. For testing purposes, the test compound was diluted in a 1:1 mixture of acetone:water (vol:vol), plus Kinetic at a rate of 0.01% v/v.
Thrips potency of each compound was evaluated by using a floral-immersion technique. Each orchid petal was dipped into treatment solution and allowed to dry in Petri dishes. Treated petals were placed into individual re-sealable plastic along with about 20 adult thrips. All test arenas were held under dark condition and a temperature of about 28° C. for duration of the assay. The percent mortality was recorded 72 hours after treatment.

Nezara viridula = assay: B.8 Green Soldier Stink Bug, soybean pod spray test; conditions: 120 h, late 3rd instar, after 5 days, read-out: mortality in comparison with untreated controls
Description: The active compound was dissolved at the desired concentration in a mixture of 1:1 (vol:vol) distilled water:aceteone. Surfactant (Kinetic) was added at a rate of 0.01% (vol/vol). The test solution was prepared at the day of use. Soybean pods were placed in 90×50 mm glass Petri dishes lined with moistened filter paper and inoculated with ten late 3rd instar N. viridula. Using a hand atomizer, an approximately 2 ml solution was sprayed into each Petri dish. Treated setup was kept at about 25-26° C. and relative humidity of about 65-70%. Percent mortality was recorded after 5 days.

Tetranychus kanzawai = assay: B.10 Red Spider Mite, cowpea bean spray test; conditions: 72 hours after treatment, read-out: mortality in comparison with untreated controls
Description: The active compound was dissolved at the desired concentration in a mixture of 1:1 (vol:vol) distilled water:acetone. Add surfactant (Kinetic) was added at a rate of 0.01% (vol/vol). The test solution was prepared at the day of use. Potted cowpea beans of 4-5 days of age were cleaned with tap water and sprayed with I-2 ml of the test solution using air driven DeVilbiss® hand atomizer at 20-30 psi (≈1,38 to 2,07 bar). The treated plants were allowed to air dry and afterwards inoculated with 30 or more mites by clipping a cassava leaf section from rearing population. Treated plants were placed inside a holding room at about 25-26° C. and about 65-70% relative humidity. Percent mortality was assessed 72 hours after treatment.

Spodoptera eridania = assay: B.11 Southern Armyworm 2nd instar larvae, lima bean foliar spray test; conditions: 96 h, 4 days after treatment, read-out: mortality in comparison with untreated controls
Description: The active compounds were formulated by a Tecan liquid handler in 100% cyclohexanone as a 10′000 ppm solution supplied in tubes. The 10′000 ppm solution was serially diluted in 100% cyclohexanone to make interim solutions. These served as stock solutions for which final dilutions were made by the Tecan in 50% acetone:50% water (v/v) into 10 or 20 ml glass vials. A nonionic surfactant (Kinetic®) was included in the solution at a volume of 0.01% (v/v). The vials were then inserted into an automated electrostatic sprayer equipped with an atomizing nozzle for application to plants/insects. Lima bean plants (variety Sieva) were grown 2 plants to a pot and selected for treatment at the 1st true leaf stage. Test solutions were sprayed onto the foliage by an automated electrostatic plant sprayer equipped with an atomizing spray nozzle. The plants were dried in the sprayer fume hood and then removed from the sprayer. Each pot was placed into perforated plastic bags with a zip closure. Ten to 11 armyworm larvae were placed into the bag and the bags zipped closed. Test plants were maintained in a growth room at about 25° C. and about 20-40% relative humidity for 4 days, avoiding direct exposure to fluorescent light (14:10 light:dark photo-period) to prevent trapping of heat inside the bags. Mortality and reduced feeding were assessed 4 days after treatment, compared to untreated control plants.

Bemisia argentifolii = assay: B.12 Silverleaf Whitefly (adults), cotton plant spray test; conditions: 72 h, 3 days after treatment, read-out: mortality in comparison with untreated controls
Description: The active compounds were formulated by a Tecan liquid handler in 100% cyclohexanone as a 10,000-ppm solution supplied in tubes. The 10,000-ppm solution was serially diluted in 100% cyclohexanone to make interim solutions. These served as stock solutions for which final dilutions were made by the Tecan in 50% acetone:50% water (v/v) into 5 or 10 ml glass vials. A nonionic surfactant (Kinetic®) was included in the solution at a volume of 0.01% (v/v). The vials were then inserted into an automated electrostatic sprayer equipped with an atomizing nozzle for application to plants/insects. Cotton plants at the cotyledon stage (one plant per pot) were sprayed by an automated electrostatic plant sprayer equipped with an atomizing spray nozzle. The plants were dried in the sprayer fume hood and then removed from the sprayer. Each pot was placed into a plastic cup and about 10 to 12 whitefly adults (approximately 3-5 days old) were introduced. The insects were collected using an aspirator and a nontoxic Tygon® tubing connected to a barrier pipette tip. The tip, containing the collected insects, was then gently inserted into the soil containing the treated plant, allowing insects to crawl out of the tip to reach the foliage for feeding. Cups were covered with a reusable screened lid. Test plants were maintained in a growth room at about 25° C. and about 20-40% relative humidity for 3 days, avoiding direct exposure to fluorescent light (14:10 light:dark photoperiod) to prevent trapping of heat inside the cup. Mortality was assessed 3 days after treatment, compared to untreated control plants.

O=C(Nc1ncc(F)cc1F)c1cc(OC2=NOC(c3cc(Cl)c(F)c(Cl)c3)(C(F)(F)F)C2)ccc1Cl (centres unmarked) [II-8, 2-chloro-5-[[5-(3,5-dichloro-4-fluoro-phenyl)-5-(trifluoromethyl)-4H-isoxazol-3-yl]oxy]-N-(3,5-difluoro-2-pyridyl)benzamide]
≥ 75%: mortality at 2500 ppm (Anthonomus grandis) | mortality at 2500 ppm (Aedes aegypti) | mortality at 300 ppm (Plutella xylostella) | mortality at 300 ppm (Dichromothrips corbetti) | mortality at 300 ppm (Nezara viridula) | mortality at 300 ppm (Tetranychus kanzawai) | mortality at 300 ppm (Spodoptera eridania) | mortality at 300 ppm (Bemisia argentifolii)

Reference: patent US12595239B2, “Substituted isoxazoline derivatives” (BASF SE, priority 2021, dated 2026)
